Test in all cases: DTP human tumour cell line panel, 48 h
The subject of assay [1] is SNB-78 CNS.
In assay [2] the test system is LXFL 529 NSCLC.
Assay [3] has as its system XF 498 CNS.
The test system of assay [4] is DLD-1 colon.
The test system of assay [5] is DMS 114 small cell lung.
The test system of assay [6] is HOP-18 NSCLC.
Assay [7] relates to MDA-N.
Assay [8] concerns KM20L2 colon.
Assay [9] concerns RXF-631 renal.

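48-hour exposure; five concentrations; linearly interpolated endpoints. At the GI50, growth is halved. TGI denotes the concentration required for complete inhibition of growth.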 *1 amine or outer side, *2 acyl side, *3 side chain or, on linkers, in order; H or OH if unused. Where a SMILES comes first, the peptide text is derived from it. [ ]: non-standard residue; d: D form. X56 = CC[C@H](C)[C@H](OC(=O)[C@@H](C)[C@@H](CC)N[*:1])C(=O)[*:2]; X32 = C[C@H](N[*:1])C(=O)C(C)(C)C(=O)[*:2]; NMeY = CN[C@@H](Cc1ccc(O)cc1)C(=O)O; NMeL = CN[C@@H](CC(C)C)C(=O)O; NMeV = CN[C@H](C(=O)O)C(C)C

Turning to `Cc1ccc2c(c1)CNc1ccc(C)cc1CN2`, the TGI in [1], in assay [2], in assay [3], in assay [4], in assay [5] and in assay [6] was over 100 µM throughout.
On to `C/C(=N\N=C(N)N)C(CN(C)C)C(c1ccccc1)c1c(O)c2ccccc2oc1=O` (configuration not stated), for which the TGI in [1], in assay [7], in [2], in [8], in [3] and in assay [4] was over 100 µM throughout. Further, the TGI in assay [5] and in assay [6] was over 100 µM each time.
`CC1(O)CCC2(C#N)CCC1C2O` (configuration not stated): the TGI in assay [1], in [9], in assay [2], in [8], in assay [3] and in assay [4] was over 100 µM each time. For the same compound, the TGI in [5] is 31.1 µM; in [6], over 100 µM.
Take `C=CCn1cc(C(=O)NC(=O)NCCCCCOC(=O)CCCCCCCCCCC(=O)OCCCCCNC(=O)NC(=O)c2cn(CC=C)c(=O)n(C)c2=O)c(=O)n(C)c1=O`: the TGI in assay [1], in assay [2], in assay [8], in assay [3], in assay [4] and in assay [5] was over 100 µM in each case. The compound also displayed a TGI in [6] of over 100 µM.
Turning to `Cc1c2c(cc3c(=O)ccn(CCN(C)C)c13)c(=O)ccn2CCN(C)C`, the TGI was over 100 µM in [1]; 19.8 µM in assay [2]; 20.8 µM in [8]; 22.9 µM in [3]; 28.7 µM in [4]; 30.1 µM in [5]. The compound further returned a TGI in assay [6] of 58.6 µM.
`COc1ccc(OC)c2c(=S)c3ccccc3[nH]c12`: the TGI in assay [7], in assay [9], in assay [2], in assay [8], in assay [3] and in assay [4] was over 100 µM in each case. The TGI in assay [5] is over 100 µM.
Regarding `N#C/C(=C\c1ccc(C(O)P(=O)(O)O)cc1)C(N)=O` (configuration not stated), the TGI in assay [1], in [9], in assay [2], in [8], in assay [3] and in [4] was over 100 µM each time. The TGI in assay [5] and in assay [6] was over 100 µM in each case.
Consider `c1ccc(COC2(OCc3ccccc3)CC3OC2C2NN=NC32)cc1` (configuration not stated), for which the concentration for total growth inhibition (TGI) is 86.3 µM in [1]; 29.3 µM in [2]; over 100 µM in assay [8]; 35 µM in assay [3]; 31.3 µM in [4]; 92.9 µM in [6].
Consider `COc1cc2c(cn1)[nH]c1ccccc12`, for which the TGI in [1], in assay [9], in assay [2], in assay [8], in assay [3] and in assay [4] was over 100 µM throughout. Also, the TGI in [5] and in assay [6] was over 100 µM in each case.
For `Nc1ncnc2c1cnn2Cc1ccc(Cl)cc1`, the TGI in [7] is over 100 µM.
The same measure, in the same setting: as for `Nc1nc(-c2cccc([N+](=O)[O-])c2)cc(-c2cc(-c3cccc([N+](=O)[O-])c3)nc(N)n2)n1`, the figure is over 100 µM.
For the compound `NNC(=O)/C(NC(=O)c1ccccc1)=C(\N)c1ccc(Cl)cc1`, the total growth inhibition concentration (TGI) in assay [1], in [2], in [8], in [4], in assay [5] and in [6] was over 100 µM throughout.
With `CC1C(=O)O[C@H]2C1CC[C@@]1(C)[C@H](O)CC[C@@]13C[C@]2(O)OO3` (some centres not stated), the TGI in [2], in assay [8], in assay [4], in assay [5] and in [6] was over 100 µM throughout.
`COc1ccc(-c2c(N)[n+]([O-])c3ccccc3[n+]2[O-])cc1OC`: the TGI in assay [1], in assay [9], in assay [2], in assay [8], in assay [4] and in assay [5] was over 100 µM throughout. The TGI in assay [6] is over 100 µM.
Turning to `O=C(c1ccc(Cl)cc1)c1ccc(OCCSCCCCCCCCCCSCCOc2ccc(C(=O)c3ccc(Cl)cc3)cc2)cc1`, the concentration for total growth inhibition (TGI) in assay [1], in [9], in assay [8] and in [4] was over 100 µM each time.
As for `COc1cc2c(c(OC)c1OC)-c1ccc(OC)c(=O)cc1[C@@H](N(C)C=O)CC2`, the TGI is over 100 µM in [1]; over 26.2 µM in assay [9]; over 100 µM in [2]; over 23 µM in assay [3]; over 100 µM in assay [4]; over 100 µM in [6].
Take `CC/C=C/c1cc2cc[nH]c2c2c1C(C)C[C@@H]2C` (some centres not stated): the concentration for total growth inhibition (TGI) in [1] is 67 µM; in [2] it was 41.9 µM; in assay [4], over 100 µM; in assay [5] it was 51 µM; in [6], 73.7 µM.
For `S=c1nc(N2CCCCC2)ss1`, the TGI in assay [1] is 99.1 µM; in assay [9], 79.4 µM; in assay [2], 54.2 µM; in assay [8], over 100 µM; in [3] it was 44.7 µM; in assay [4], over 100 µM. Besides, the TGI in assay [5] is 42.4 µM; in assay [6], 88.4 µM.
Compound `O=[N+]([O-])c1ccc(Cl)cc1N/N=C/c1cccc2cccnc12` came in with a TGI in [7] of over 100 µM.
On the same count and under the same terms, under `COc1ccc(/C=C/NC=O)cc1` stands over 100 µM.
As for `C=C1C(=O)OC2CC(C)C3C=CC(=O)C3CC12` (configuration not stated), the concentration for total growth inhibition (TGI) in assay [1] is 19.2 µM; in assay [7], 5.73 µM; in assay [9], 13.7 µM; in assay [2] it was 2.67 µM; in [8] it was 12.8 µM; in assay [3] it was 3.4 µM. The concentration for total growth inhibition (TGI) in assay [5] amounted to 6.22 µM; in assay [6], 16.9 µM.
In the case of `CC(=O)/C=C/c1ccc(C)cc1`, the TGI in [1], in [2], in [8], in [4], in [5] and in assay [6] was over 100 µM each time.
Compound `COc1ccc(-c2cc(=O)c3c(OC)c(OC)c(OC)c(OC)c3o2)c(OC)c1` yielded a TGI in [7] of over 100 µM.
Turning to `Cc1cc(N(CCCl)CCCl)ccc1/C=N/NC(=O)Cc1cc(=O)oc2cc(O)ccc12`, in assay [7], the TGI is 32.4 µM.
Same read-out and setting: under `Cc1nc(C(N)=S)sc1C(=O)C/C(=N/N)C(=O)Nc1ccc(Cl)cc1` stands over 100 µM.
Still for that read-out and setting: as for `C=CC1=C(C)C2=NC1=CC1=NC(=CC3=C(C)C4=C(O)C(C(=O)OC)C(=C5NC(=C2)C(C)C5CCC(=O)OC)C4=N3)C(CC)=C1C` (configuration not stated), the figure is over 100 µM.
As to `C1=Nc2ccccc2C=Nc2ccccc2C=Nc2ccccc2C=Nc2ccccc21.[Cl-].[Pt+2]`, the GI50 in [9] is 30.9 µM; in [2], 10.3 µM; in assay [8], 21 µM; in [3], 18.4 µM; in [4], 17.8 µM; in assay [5] it was 12.1 µM. Further, the GI50 in assay [6] was 22.3 µM. In addition, the TGI in assay [9] worked out at 77.9 µM; in assay [2] it was 60 µM; in [8], 58 µM; in assay [3], 51.1 µM; in assay [4], 98.4 µM; in assay [5], 46.2 µM. The TGI in [6] was over 100 µM.
Consider `CCOC(=O)/C(=C\c1ccc[nH]1)C(=O)c1ccccc1`, for which the TGI in assay [1], in assay [9], in assay [2], in assay [8], in [3] and in assay [4] was over 100 µM throughout. For the same compound, the TGI in [5] and in [6] was over 100 µM in each case.
On to `O=c1c2cccnc2ncn1CCN1CCCC1`, for which the TGI in assay [1], in assay [2], in [8], in assay [3], in assay [4] and in assay [5] was over 100 µM throughout.
In the case of `CC[C@H](C)[C@@H]1OC(=O)[C@@H](C)[C@@H](CC)NC(=O)[C@H](C)NC(=O)C(C)(C)C(=O)[C@H](C)NC(=O)[C@H](Cc2ccc(OC)cc2)N(C)C(=O)[C@H](C(C)C)N(C)C(=O)CNC(=O)[C@H](CC(C)C)N(C)C(=O)CNC1=O` (cyclo(A[X56]G[NMeL]G[NMeV][NMeY](Me)[X32])), the TGI in assay [2] was found to be 0.0823 µM; in [8], 16.7 µM; in [3], 0.173 µM; in [4] it was 2.12 µM; in assay [5], 1.13 µM; in assay [6] it was 0.0425 µM.
Turning to `CCC(C(=O)c1ccccc1)C(CCCC(=O)Nc1c(C)cccc1C)N=O` (configuration not stated), the TGI in assay [1], in [9], in assay [2], in assay [8], in assay [3] and in assay [4] was over 100 µM throughout. This compound also came in with a TGI in assay [6] of over 100 µM.
As to `Cc1c(N=Cc2ccc(N(CCC#N)CCC#N)cc2)c(=O)n(-c2ccccc2)n1C`, the TGI is over 100 µM in assay [1]; over 100 µM in [7]; over 100 µM in [2]; over 100 µM in assay [8]; over 80.6 µM in [3]; over 100 µM in [4]. The TGI in [5] and in assay [6] was over 100 µM in each case.
Regarding `CCOP(=O)(OCC)C1=NC=CC=CC1n1c(-c2ccccc2)nn(CC)c1=O` (configuration not stated), the TGI in [9], in assay [2], in assay [8], in [4], in assay [5] and in [6] was over 100 µM each time.
As to `CC(C)C(=O)/C=C/c1ccc(Cl)c(Cl)c1`, the TGI in assay [1] was over 100 µM; in [2], 40.2 µM; in [8] it was 37.8 µM; in assay [3], 25.1 µM; in [4] it was 34.2 µM; in assay [5] it was 42.3 µM. The compound also returned a TGI in assay [6] of 23.5 µM.
Take `CSc1ncnc2c1CCN2`: the concentration for total growth inhibition (TGI) in assay [1] is over 100 µM; in assay [7], 8.6 µM; in assay [2], over 100 µM; in assay [5] it was over 100 µM.
As for `COc1cc(/C=C(\OC(C)=O)c2ccc3c(c2)OCO3)cc(OC)c1OC`, the TGI is 91.9 µM in [1]; 34.9 µM in assay [2]; over 100 µM in assay [8]; 27.7 µM in [3]; 60.6 µM in assay [4]; 29 µM in assay [5]. The TGI in assay [6] is over 100 µM.
For `N#CC1CC2(C(=O)C1=O)c1ccccc1-c1ccccc12` (configuration not stated), the TGI in assay [2], in assay [8], in [4], in [5] and in assay [6] was over 100 µM each time.
As to `CC1(C)CC2(C)CC1CC2NC(=O)CCN1CCOCC1` (configuration not stated), the total growth inhibition concentration (TGI) in assay [7] was over 100 µM.
Regarding `Cn1cnc([N+](=O)[O-])c1Sc1nnnn1-c1ccccc1`, the total growth inhibition concentration (TGI) in assay [1] was determined as 34.2 µM; in [9], 30.6 µM; in assay [2], 15.4 µM; in assay [3], 24.6 µM; in assay [4] it was 22.1 µM; in assay [5], 33 µM. For the same compound, the TGI in assay [6] was found to be 8.26 µM.
With `O=C(NCc1ccncc1)C1COc2cc(-c3cc(=O)c4ccccc4o3)ccc2O1` (configuration not stated), the concentration for total growth inhibition (TGI) in assay [1], in assay [2], in assay [8], in [3] and in assay [4] was over 100 µM in each case.
For `N#CC1C2CCC3(CC2CCN1C(=O)c1ccccc1)OCCO3` (configuration not stated), the TGI in assay [1], in assay [2], in assay [8], in assay [3], in assay [4] and in assay [5] was over 100 µM throughout. In addition, the TGI in [6] is over 100 µM.
`COc1ccccc1-c1cc(=O)c2ccc(OC)c(OC)c2o1`: the TGI in assay [7] was over 100 µM.

One may read the TGI as the concentration giving total growth inhibition. Read a high TGI as lower sensitivity of the cells. Broadly, the GI50 is the concentration that inhibits growth by half.

Source of the values: PubChem BioAssay (NCI).
